Key:
MC1-R = target: T1, MC1-R (Mus musculus, UniProt Q01727); assay: Competitive inhibition assay using [I^125]-NDP-α-MSH, B-16 mouse melanoma cell membranes; format: binding; conditions: for inhibition at 1 µM: 1 μM test compound, read-out: Inhibition at 1 μM (NDP-α-MSH) In Normal System, MC1-R; for Ki: read-out: Ki (nM) (NDP-α-MSH) In Normal System, MC1-R
T1 construct: B-16 mouse melanoma cells (containing MC1-R); endogenous in cells
Method: (§1) The ligand concentration used was 0.4 nM for MC3-R and MC5-R, 0.2 nM for MC4-R and 0.1 nM for B16-F10 (MC1-R) membranes. In certain experiments, hMC1-R was also employed.
(§2) The assay mixture was incubated for 90 minutes at room temperature, then filtered and the membranes washed three times with ice cold buffer. The filter was dried and counted in a gamma counter for remaining radioactivity bound to the membranes. […] Each assay was conducted in triplicate and the actual mean values are described, with results less than 0% reported as 0%.

[1] = IP (and IN) food intake, mice; format: in vivo; conditions: mouse, IP; for maximal decrease in food intake / inhibition in vivo at 3 mg/kg / inhibition in vivo at 10 mg/kg: 4 hours; for inhibition in vivo at 3 mg/kg / inhibition in vivo at 10 mg/kg: read-out: maximal decrease in food intake; for decrease in food intake: 20 hours
Method: IV and IP food intake and body weight change. Change in food intake and body weight was evaluated for selected compounds. Male Sprague-Dawley rats or male C57BL/6 mice were utilized. Animals were individually housed in conventional plexiglass hanging cages and maintained on a controlled 12 hour on/off light cycle. Water and powdered (LabDiet, 5P00 Prolab RMH 3000) or pelleted (Harlan Teklad 2018 18% Protein Rodent Diet) food was provided ad libitum. For 1 week before treatment, 24-hour food intake and body weight change was recorded to assess a baseline for the group during vehicle treatment. The rats were dosed IV with vehicle or selected compounds (0.5-3 mg/kg, and in some cases up to 10 mg/Kg) or dosed intraperitoneally (IP) with vehicle or selected compounds (0.5-10 mg/kg, and in some cases up to 50 mg/kg). Mice were dosed IP. […] The changes in body weight and food intake for the 48 hour and 72 hour periods after dosing were also measured to determined reversal of changes in body weight and food intake effects back to baseline levels.

MC3-R = MC3-R (Homo sapiens, UniProt P41968); assay: Competitive inhibition assay using [I^125]-NDP-α-MSH, hMC3-R membranes; format: binding; parameters: expressed in transfected cells; conditions: for inhibition at 1 µM: 1 μM test compound, read-out: Inhibition at 1 μM (NDP-α-MSH) In Normal System, MC3-R
Sequence of MC3-R (P41968 whole entry): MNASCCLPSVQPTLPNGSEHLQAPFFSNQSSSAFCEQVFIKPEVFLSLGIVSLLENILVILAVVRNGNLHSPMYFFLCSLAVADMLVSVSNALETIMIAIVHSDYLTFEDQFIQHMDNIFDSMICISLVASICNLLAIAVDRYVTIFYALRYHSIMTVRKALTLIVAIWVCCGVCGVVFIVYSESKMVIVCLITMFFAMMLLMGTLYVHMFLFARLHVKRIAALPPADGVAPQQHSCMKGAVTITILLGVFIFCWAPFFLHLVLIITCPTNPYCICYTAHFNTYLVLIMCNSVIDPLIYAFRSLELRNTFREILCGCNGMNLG
Method: as §1, §2

MC5-R = MC5-R (Homo sapiens, UniProt P33032); assay: Competitive inhibition assay using [I^125]-NDP-α-MSH, hMC5-R membranes; format: binding; parameters: expressed in transfected cells; conditions: for inhibition at 1 µM: 1 μM test compound, read-out: Inhibition at 1 μM (NDP-α-MSH) In Normal System, MC5-R
Sequence of MC5-R (P33032 whole entry): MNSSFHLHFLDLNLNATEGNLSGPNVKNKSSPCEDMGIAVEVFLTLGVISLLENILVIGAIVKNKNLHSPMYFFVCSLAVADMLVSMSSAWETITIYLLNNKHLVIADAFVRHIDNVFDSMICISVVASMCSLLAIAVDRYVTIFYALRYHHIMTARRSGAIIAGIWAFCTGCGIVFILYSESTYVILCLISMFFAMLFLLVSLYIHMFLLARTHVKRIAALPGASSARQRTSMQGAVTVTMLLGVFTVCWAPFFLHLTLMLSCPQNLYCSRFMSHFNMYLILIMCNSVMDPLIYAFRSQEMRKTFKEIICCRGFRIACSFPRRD
Method: as §1, §2

MC4-R [2] = target: T2, MC4-R (Homo sapiens, UniProt P32245); assay: Competitive inhibition assay using [I^125]-NDP-α-MSH, hMC4-R membranes; format: binding; parameters: host or cells: TREx-293 (HEK-293 stably expressing Tet repressor); conditions: for inhibition at 1 µM: 1 μM test compound, read-out: Inhibition at 1 μM (NDP-α-MSH) In Normal System, MC4-R
T2 sequence (P32245 whole entry): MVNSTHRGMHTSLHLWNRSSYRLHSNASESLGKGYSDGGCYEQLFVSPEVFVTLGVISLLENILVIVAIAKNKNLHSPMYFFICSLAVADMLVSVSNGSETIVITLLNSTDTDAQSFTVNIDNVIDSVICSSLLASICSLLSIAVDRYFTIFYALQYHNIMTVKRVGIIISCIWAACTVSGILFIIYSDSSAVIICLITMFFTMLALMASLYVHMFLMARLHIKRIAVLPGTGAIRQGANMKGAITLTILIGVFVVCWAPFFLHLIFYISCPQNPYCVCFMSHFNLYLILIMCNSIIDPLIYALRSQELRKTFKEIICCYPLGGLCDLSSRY
Method: as §1, §2

MC4-R [3] = target: T2, MC4-R; assay: cAMP agonist stimulation, low receptor density system (0.1 ng/mL doxycycline); conditions: for Efficacy/Intrinsic Activity: 0.1 ng/mL doxycycline, low receptor density hMC4-R system, NDP-α-MSH maximal cAMP = 1.0
MC4-R [4] = target: T2, MC4-R; assay: cAMP agonist stimulation, high receptor density system (10 ng/mL doxycycline); conditions: for Efficacy/Intrinsic Activity: 10 ng/mL doxycycline, high receptor density hMC4-R system, NDP-α-MSH maximal cAMP = 1.0
[5] = Penile erection induction in male rats; format: in vivo
Method: Penile erection induction. The ability of compounds to induce penile erection (PE) in male rats was evaluated with selected compounds. Male Sprague-Dawley rats weighing 200-250 g were kept on a 12 hour on/off light cycle with food and water ad libitum. All behavioral studies were performed between 10 A.M. and 5 P.M. Groups of 4-8 rats were treated with compounds at a variety of doses via intravenous (IV) or intracerebroventricular (ICV) routes. Immediately after treatment, rats were placed into individual polystyrene cages (27 cm long, 16 cm wide, and 25 cm high) for behavioral observation. […] Controls utilized carrier without the test compound. Mean PEs in control groups were 0.17 to 0.5 PEs/rat by IV administration in various experiments and between 1-2 PEs/rat by ICV administration in various experiments, and thus only PEs with statistically relevant increases over the mean PEs in control groups are reported as inducing PEs. A PE response in IV animals greater than the mean PEs in control groups but less than 1.0 PEs/rat, particularly with less than all animals responding, was treated as equivocal, and not necessarily distinguishable from vehicle control. In selected instances, compounds with equivocal results in the IV model were tested for penile response in an ICV model, and compounds without a statistically relevant increase over the mean PEs in ICV control groups were determined to not induce PEs.

MC4-R [6] = target: T2, MC4-R; assay: cAMP functional activity assay in HEK-293 cells, normal system; format: cell-based; parameters: expressed in transfected cells; host or cells: HEK-293; conditions: for intrinsic activity at MC4-R in a normal system: NDP-α-MSH = 1.0; for functional status at MC4-R in cAMP assay: normal system, 1 μM concentration where stated
Method: General method for EC50 determination in functional activity assay. […] Data analysis and EC50 values were determined using nonlinear regression analysis with Prism Graph-Pad software.
Functional status. The agonist/antagonist status with respect to MC1-R, MC-3R, MC4-R and MC5-R of certain compounds of the invention was determined. Antagonistic activity was determined by measuring the inhibition of α-MSH-induced or NDP-α-MSH-induced cAMP levels following exposure to graded doses of compounds as in the preceding descriptions.
Assay for agonist. Evaluation of the molecules to elicit a functional response in HEK-293 cells expressing MC4-R was accomplished by measuring the accumulation of intracellular cAMP following treatment. Confluent HEK-293 cells expressing MC4-R receptors were detached by enzyme free cell suspension buffer. […] The cells were plated in a 96 well plates at a density of 0.5×10^5 cells per well and pre-incubated for 30 minutes. Test compounds (dissolved in dimethylsulfoxide (DMSO) at a concentration range of 0.05-5000 nM) were added in a total assay volume of 200 μL and cells were incubated for 1 hour at 37° C. The concentration of DMSO was always held at 1% in the assay mixture. NDP-α-MSH was used as the reference agonist. […] Data analysis and EC50 values were determined by using nonlinear regression analysis with Prism Graph-Pad software. […] Compounds with a response ratio of less than 0.1 (10%) were evaluated for antagonistic activity.

T1 sequence (Q01727 whole entry): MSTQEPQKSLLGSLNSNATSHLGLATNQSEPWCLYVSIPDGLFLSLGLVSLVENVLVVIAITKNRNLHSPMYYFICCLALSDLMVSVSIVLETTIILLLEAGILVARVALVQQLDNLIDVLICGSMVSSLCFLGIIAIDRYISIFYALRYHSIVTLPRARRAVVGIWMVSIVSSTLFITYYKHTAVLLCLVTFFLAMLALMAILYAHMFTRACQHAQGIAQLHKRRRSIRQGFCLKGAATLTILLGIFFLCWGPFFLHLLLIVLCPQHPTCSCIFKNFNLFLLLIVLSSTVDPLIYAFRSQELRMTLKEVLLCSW

| SMILES | inhibition at 1 µM (MC1-R) | Ki (MC1-R) | maximal decrease in food intake ([1]; 10 mg/kg) | inhibition at 1 µM (MC3-R) | inhibition at 1 µM (MC5-R) | inhibition at 1 µM (MC4-R [2]) | Efficacy/Intrinsic Activity (MC4-R [3]) | Efficacy/Intrinsic Activity (MC4-R [4]) | Penile Erection IV ([5]; rat, IV) | penile erection response ([5]; rat, IV, 1 and 3 mg/kg) | inhibition in vivo at 3 mg/kg ([1]; 3 mg/kg) | inhibition in vivo at 10 mg/kg ([1]; 10 mg/kg) | intrinsic activity at MC4-R in a normal system (MC4-R [6]; normal receptor density system) | functional status at MC4-R in cAMP assay (MC4-R [6]) | EC50 (MC4-R [4]) | EC50 (MC4-R [3]) | also measured |
| --- | --- | --- | --- | --- | --- | --- | --- | --- | --- | --- | --- | --- | --- | --- | --- | --- | --- |
| CC(=O)N[C@H](Cc1ccc2ccccc2c1)C(=O)N1C[C@@H](CC(C)C)N(CCc2ccc3ccccc3c2)C[C@@H]1CCCNC(=N)N [Example 12, N-{2-[2(S)-(3-Guanidino-propyl)-5(R)-isobutyl-4-(2-naphthalen-2-yl-ethyl)-piperazin-1-yl]-1(R)-naphthalen-2-ylmethyl-2-oxo-ethyl}-acetamide] | 0% | 4620 nM | 46% | 40% | 64% | 100% | None | None | – | – | – | – | – | – | – | – | – |
| CC(=O)N[C@H](Cc1ccc(C)cc1C)C(=O)N1C[C@@H](C)N(CCc2ccc3ccccc3c2)C[C@@H]1CCCNC(=N)N [Example 25, N-{1(R)-(2,4-Dimethyl-benzyl)-2-[2(S)-(3-guanidino-propyl)-5(R)-methyl-4-(2-naphthalen-2-yl-ethyl)-piperazin-1-yl]-2-oxo-ethyl}-acetamide] | 28% | 568 nM | 34% | 75% | 89% | 100% | None | None | – | – | – | – | – | – | – | – | – |
| Cc1cc(Cl)ccc1C[C@@H](N)C(=O)N1C[C@@H](C)N(CCc2ccc3ccccc3c2)C[C@@H]1CCCNC(=N)N [Example 26, N-{3-[1-[2(R)-Amino-3-(2-methyl, 4-chloro-phenyl)-propionyl]-5(R)-methyl-4-(2-naphthalen-2-yl-ethyl)-piperazin-2(S)-yl]-propyl}-guanidine] | 6% | – | – | 74% | 77% | 100% | None | 0.78 | No | no penile erection | 44% | 86% | 0.3 | partial agonist (intrinsic activity between 0.1 (10%) and 0.7 (70%) is classified as a partial agonist) | 0.031 µM | – | – |
| Cc1ccc(C[C@@H](N)C(=O)N2C[C@@H](C)N(CCc3ccc4ccccc4c3)C[C@@H]2CCCNC(=N)N)c(C)c1 [Example 27, N-{3-[1-[2(R)-Amino-3-(2,4-dimethyl-phenyl)-propionyl]-5(R)-methyl-4-(2-naphthalen-2-yl-ethyl)-piperazin-2(S)-yl]-propyl}-guanidine] | 9% | 1230 nM | – | 62% | 59% | 100% | None | 0.61 | No | no penile erections | 47% | 88% | 0.2 | partial agonist (intrinsic activity between 0.1 (10%) and 0.7 (70%) is classified as a partial agonist) | 0.129 µM | – | Penile Erection ICV ([5]; rat, ICV): No; penile erection response ([5]; rat, ICV, 1 and 3 nmole): no penile erection response |
| C[C@@H]1CN(C(=O)[C@H](N)Cc2ccc(Cl)cc2)[C@@H](CCCNC(=N)N)CN1CCc1ccc2ccccc2c1 [Example 28, N-{3-[1-[2(R)-Amino-3-(4-chloro-phenyl)-propionyl]-5(R)-methyl-4-(2-naphthalen-2-yl-ethyl)-piperazin-2(S)-yl]-propyl}-guanidine] | 64% | – | – | 70% | 61% | 97% | 0.29 | 0.75 | No | – | – | – | 0.8 | agonist (intrinsic activity of 0.7 (70%) or higher is classified as an agonist) | 0.024 µM | 0.106 µM | penile erection response ([5]; rat, IV, 0.003 to 3 mg/kg): no penile erections; maximal decrease in food intake ([1]; 3 mg/kg): 46% |
| Cc1ccc(C[C@@H](N)C(=O)N2C[C@@H](C)N(C(=O)Cc3ccc4ccccc4c3)C[C@@H]2CCCNC(=N)N)c(C)c1 [Example 29] | 0% | 431 nM | – | 25% | 7% | 85% | 0.25 | 0.77 | Yes* | – | – | – | 0.8 | agonist (intrinsic activity of 0.7 (70%) or higher is classified as an agonist) | 0.034 µM | 0.045 µM | maximum mean PEs per rat ([5]; IV, 0.0003 to 0.03 mg/kg): 0.5; animals responding ([5]; rat, IV, 0.0003 to 0.03 mg/kg): no more than 50%; decrease in food intake ([1]; 3 mg/kg): 3%; decrease in food intake ([1]; 10 mg/kg): 26%; Ki (MC3-R; read-out: Ki (nM) (NDP-α-MSH) In Normal System, MC3-R): 526 nM; Ki (MC5-R; read-out: Ki (nM) (NDP-α-MSH) In Normal System, MC5-R): 1540 nM; EC50 (MC4-R [6]; normal receptor density system): 46 nM; Ki (MC4-R [2]; read-out: Ki (nM) (NDP-α-MSH) In Normal System, MC4-R): 6 nM |
